Test results as given in patent US20230165970A1, “COMPOSITIONS AND METHODS FOR THE TREATMENT OF BACTERIAL INFECTIONS” (priority 2017, published 2023).
*1 amine or outer side, *2 acyl side, *3 side chain or, on linkers, in order; H or OH if unused. Where a SMILES comes first, the peptide text is derived from it. Bridges are numbered along the chain shown (N, C = ends). [ ]: non-standard residue; d: D form. The star is where a group is joined. X10 = O=C([C@@H](N[*:1])[C@H](O)CCc1ccccc1)[*:2]; Propargyl(OCH2CH2)4CO = C#CCOCCOCCOCCOCCC(=O)*; X11 = CCCCCCCC[C@@H](O)[C@H](N[*:1])C(=O)[*:2]; X1 = CCCCCC[C@@H](O)[C@H](N[*:1])C(=O)[*:2]; Nle = CCCC[C@H](N)C(=O)O; Dab = NCC[C@H](N)C(=O)O

Tested on: LPS from E. coli O111:B4
Test: LPS binding/neutralization by Limulus Amebocyte Lysate (LAL) assay
Format: biochemical
Conditions: LPS 1-10,000 ng/mL, test article 0.25-10 μM; sum of AUCs relative to maximal AUC (Table 14)
Procedure: The LAL assay (Charles River) was used to determine the binding affinity of test articles to LPS.
(§1) For the assay, 25 μL purified LPS from E. coli O111:1B4 (Sigma) at doses ranging from 1-10,000 ng/mL were incubated with 25 μL of test article at concentrations ranging from 0.25-10 NM. After 5 min incubation at 37° C., 50 μL of LAL reagent, which reacts with lipid A portion from LPS, was added to corresponding wells. After 15 min, absorbance at 405 nm was read on EnSpire plate reader (Perkin Elmer). The % LPS neutralization is calculated relative to a PBS control (background) and LPS control at each concentration (positive control).
LPS neutralization=(1−(absorbance test article−PBS with LAL reagent)/(absorbance no test article−PBS with LAL reagent))×100
To obtain a single value of LPS neutralization for each test article, the area under the curve (AUC) for dose-response of test articles from […] for each LPS concentration was calculated using Prism 7 software. The % LPS neutralization is the sum of the AUCs for each LPS concentration determined relative to the maximal AUC achievable×100.
as §1, with “O111:B4” for “O111:1B4”, “μM.” for “NM.”

Row | SMILES | % LPS neutralization of TM
1 | C#CCOCCOCCOCCOCCC(=O)N[C@@H](CCCC)C(=O)N[C@@H](CCN)C(=O)N[C@H](C(=O)N[C@@H](CCN)C(=O)N[C@H]1CCNC(=O)[C@H]([C@@H](C)O)NC(=O)[C@H](CCN)NC(=O)[C@H](CCN)NC(=O)[C@H](CC(C)C)NC(=O)[C@@H](Cc2ccccc2)NC(=O)[C@H](CCN)NC1=O)[C@H](O)CCCCCC [Int-80] ({Propargyl(OCH2CH2)4CO}-[Nle][Dab][X1][Dab][Dab][Dab][dF]L[Dab][Dab]T; lactam 5-C) | 55.7%
2 | C#CCOCCOCCOCCOCCC(=O)N[C@@H](CCN)C(=O)N[C@H](C(=O)N[C@@H](CCN)C(=O)N[C@H]1CCNC(=O)[C@H]([C@@H](C)O)NC(=O)[C@H](CCN)NC(=O)[C@H](CCN)NC(=O)[C@H](CC(C)C)NC(=O)[C@@H](Cc2ccccc2)NC(=O)[C@H](CCN)NC1=O)[C@H](O)CCc1ccccc1 [Int-83] ({Propargyl(OCH2CH2)4CO}-[Dab][X10][Dab][Dab][Dab][dF]L[Dab][Dab]T; lactam 4-C) | 30.9%
3 | C#CCOCCOCCOCCOCCC(=O)N[C@@H](CCN)C(=O)N[C@H](C(=O)N[C@@H](CCN)C(=O)N[C@H]1CCNC(=O)[C@H]([C@@H](C)O)NC(=O)[C@H](CCN)NC(=O)[C@H](CCN)NC(=O)[C@H](CC(C)C)NC(=O)[C@@H](Cc2ccccc2)NC(=O)[C@H](CCN)NC1=O)[C@H](O)CCCCCCCC [Int-84] ({Propargyl(OCH2CH2)4CO}-[Dab][X11][Dab][Dab][Dab][dF]L[Dab][Dab]T; lactam 4-C) | 53.7%
